Experimental data taken from US9156830B2, “Heterocyclic compounds” (SHIONOGI & CO., LTD., priority 2011, dated 2015).

Legend:
Human TRPV1 [1] = target: T1, Human TRPV1 (Homo sapiens (Human), UniProt Q8NER1); test: Capsaicin-Based Assay (Protocol 2), TRPV1/CHO cells; format: cell-based; details: capsaicin 100 nM final, Fluo-4, read-out: TRPV1 IC50 Potency Capsaicin-Based Assay IC50
Procedure: The TRPV1/CHO cell line was generated as described below. […] Subsequently, the cells were loaded by incubation in 0.1 mL of wash buffer containing Fluo-4 at 3 μM final concentration. After 1 hour, the cells were washed twice with 0.2 mL wash buffer and resuspended in 0.1 mL wash buffer. The plates were then transferred to a Fluorescence Imaging Plate Reader (Molecular Devices). Fluorescence intensity was monitored for 15 seconds to establish a baseline. […] The final concentration of the compound was adjusted to range from 100 μM to 1.5625 μM. […] Data were collected over the entire time course and analyzed using Excel and the curve-fitting formula GraphPad Prism.

[2] = Measurement of Body Temperature Increase; format: in vivo; details: Crl/SD rats, oral, 1 mg/mL in 0.5% methylcellulose at 10 mL/kg; rectal temperature 0.5, 1 and 2 hrs after administration; difference from vehicle group average
Procedure: Selection of rats (Crl/SD rats, 7 weeks, male) for this study is based on rectal body temperature measured during the morning of the day of dosing. In addition, animals selected for this study are acclimated to both the rectal measurement procedure and to being handled and dosed to minimize spontaneous, stress-induced, increases in body temperature. The study is conducted in the animal care laboratories where the room temperature and humidity are kept. The rats are free to move and food and water during the study. Each rat is numbered with color line on the tail, housed in each cage and permittted the normal range of movement. Immediately before each body temperature is measured, they transferred to a single cage at each measurement. To reduce stress which affected the body temperature, the rats are covered with towels at the measurement. The thermistor probe is then carefully inserted into the rectum of each rat and left in place until the value on the digital display had stabilized.
On the day before dosing, rectal body temperatures are measured at 9:00, 10:00, 11:00, 12:30, 13:30, 14:30 and 15:30 to familiarize the animals with the measurement procedure prior to administration of the test or control treatments. The rats are also dosed by oral gavage without vehicle at 12:30 to acclimate and familiarized the animals with the handling and dosing procedure.
On the day of dosing, only rats whose rectal body temperatures are within the range of 37.0° C. to 37.7° C. are selected for this study. Rectal body temperatures are measured at 9:00, 10:00 and 11:00. Rats whose rectal body temperatures are over 37.9° C. at 10:00, and are outside the range of 37.0° C. to 37.7° C. at 11:00 are excluded from the study. The selected rats are divided to several groups based on their rectal body temperatures at 11:00. Rectal body temperatures of the selected rats are measured again at 12:30, and any rats whose rectal body temperature is 38.0° C. or greater are excluded from the study.
Following the group assignment, test compounds or vehicle is administrated to the rats. Each test compound is dissolved in 0.5% methylcellulose and the final concentration of the compound is adjusted to 1 mg/mL. Test compound is orally administrated in a volume 10 mL/kg once. 10 mL/kg of vehicle (0.5% methylcellulose) is administered to the vehicle group. The rectal body temperatures are measured 0.5, 1 and 2 hrs after the administration. The study is conducted in the animal care laboratories where the room temperature and humidity are kept.
Body temperature increase (ΔTb) is calculated from the difference from an average of the vehicle group at each time point. The body temperature increases (ΔTb) of Compounds I-20, I-25, I-26, I-28, I-29, I-33, I-34, I-36, I-37, I-63 and I-64 were less than 0.3° C.

Human TRPV1 [3] = target: T1, Human TRPV1; test: pH-Based Assay (Protocol 2), Ca2+ response in TRPV1/CHO cells; format: cell-based; details: pH 5.0-5.1 (H2SO4)
Procedure: The TRPV1/CHO cell line was generated as described below. The following assay was conducted to determine the concentration of sulfuric acid that would give rise to a pH that induces a […] response optimal to test compounds for their effect on TRPV1. […] For one half of a 96-well plate one agonist solution was used, for the other half the other agonist solution. The agonist solutions were obtained by diluting sulfuric acid (H2SO4, 1 M) with measuring buffer. The concentrations for the two agonist solutions were determined as described above in Section 2 of Protocol 2. The sulfuric acid concentrations between the two agonist solutions differed by 0.5 mM. […] The thereby-obtained solutions were further diluted in measuring buffer (1:100) as 10× stock serial dilutions with a DMSO concentration of 1%. 10 μL of a 10× stock was added into each well at step 3.3.(4) of Protocol 2. Thus, the final concentrations of antagonists ranged from 1000-0.977 nM containing 0.1% DMSO (FIG. 3B). […] (3) The cells were washed twice with 150 μL of measuring buffer (mentioned in 2.2.(3) of Protocol 2, no probenecid). The wells were subsequently refilled with 70 μL of measuring buffer. (4) Either 10 μL of measuring buffer or 10 μL of 10× stock serial dilution of test compound (described in 3.2. above) were applied to each well. Usually, only one test compound was tested per 96-well plate. The number of replicates per 96-well plate for a particular antagonist at a particular concentration was 7×2 since two different sulfuric acid concentrations were used per 96-well plate (N=7×2)(FIG. 3). Step (5) was the same as 2.2.(4) above. (6) Fura-2 fluorescent intensity was monitored as described in 2.2.(5) above. […] Steps (7) and (8) were as described in 2.2.(6) and 2.2.(7) above, respectively. […] FIG. 3) were measured one by one using a portable pH meter.

T1 sequence (Q8NER1 whole entry): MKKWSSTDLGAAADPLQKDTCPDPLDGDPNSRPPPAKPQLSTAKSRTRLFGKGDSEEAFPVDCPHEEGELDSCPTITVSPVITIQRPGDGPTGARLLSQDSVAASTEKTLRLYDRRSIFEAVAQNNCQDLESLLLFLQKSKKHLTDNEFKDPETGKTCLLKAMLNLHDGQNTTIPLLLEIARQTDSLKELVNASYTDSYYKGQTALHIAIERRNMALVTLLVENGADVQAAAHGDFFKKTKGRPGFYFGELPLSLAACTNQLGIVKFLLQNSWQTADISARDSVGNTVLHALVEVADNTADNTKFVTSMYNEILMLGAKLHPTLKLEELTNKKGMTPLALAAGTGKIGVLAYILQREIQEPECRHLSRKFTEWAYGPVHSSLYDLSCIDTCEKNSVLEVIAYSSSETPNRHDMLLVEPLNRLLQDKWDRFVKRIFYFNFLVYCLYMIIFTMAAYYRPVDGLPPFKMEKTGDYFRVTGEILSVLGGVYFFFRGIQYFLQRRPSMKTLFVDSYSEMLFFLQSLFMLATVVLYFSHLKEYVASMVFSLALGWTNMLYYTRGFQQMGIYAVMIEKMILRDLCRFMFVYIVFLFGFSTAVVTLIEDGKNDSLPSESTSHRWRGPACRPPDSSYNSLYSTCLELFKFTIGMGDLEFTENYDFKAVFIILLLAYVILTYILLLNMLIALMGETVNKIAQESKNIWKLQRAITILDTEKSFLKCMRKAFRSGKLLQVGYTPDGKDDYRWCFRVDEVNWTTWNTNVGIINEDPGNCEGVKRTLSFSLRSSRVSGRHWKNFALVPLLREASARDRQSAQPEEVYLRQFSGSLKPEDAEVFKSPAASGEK

Row | Body temperature increase (ΔTb) [2] | Compound | further results
1 | less than 0.3 °C | O=C(Nc1nc2ccc(F)cc2s1)N1CC=C(c2ncc(-c3cc(CO)on3)cc2Cl)CC1 [Compound I-34, 4-(3-chloro-5-(5-(hydroxymethyl)isoxazol-3-yl)pyridin-2-yl)-N-(6-fluorobenzo[d]thiazol-2-yl)-5,6-dihydropyridine-1(2H)-carboxamide] | IC50 (Human TRPV1 [3]; Fura-2, read-out: TRPV1 IC50 Potency pH-Based Assay IC50): 33.6 nM
2 | less than 0.3 °C | O=C(Nc1ccc(C(F)(F)F)c(Cl)c1)N1CC=C(c2ncc(-c3nc(CO)no3)cc2Cl)CC1 [Compound I-36, N-(3-chloro-4-(trifluoromethyl)phenyl)-4-(3-chloro-5-(3-(hydroxymethyl)-1,2,4-oxadiazol-5-yl)pyridin-2-yl)-5,6-dihydropyridine-1(2H)-carboxamide] | IC50 (Human TRPV1 [3]; Fura-2, read-out: IC50 value by the pH-Based Assay): ≤ 100 nM
3 | less than 0.3 °C | O=C(Nc1ccc(C(F)(F)F)cn1)N1CC=C(c2ncc(-c3nc(CO)no3)cc2Cl)CC1 [Compound I-37, 4-(3-chloro-5-(3-(hydroxymethyl)-1,2,4-oxadiazol-5-yl)pyridin-2-yl)-N-(5-(trifluoromethyl)pyridin-2-yl)-5,6-dihydropyridine-1(2H)-carboxamide] | –
4 | less than 0.3 °C | O=C(Nc1ccc(C(F)(F)F)cn1)N1CC=C(c2ncc(-c3nc(CO)no3)cc2F)CC1 [Compound I-63, 4-(3-fluoro-5-(3-(hydroxymethyl)-1,2,4-oxadiazol-5-yl)pyridin-2-yl)-N-(5-(trifluoromethyl)pyridin-2-yl)-5,6-dihydropyridine-1(2H)-carboxamide] | –
5 | less than 0.3 °C | Cc1cc(NC(=O)N2CC=C(c3ncc(-c4nc(CO)no4)cc3F)CC2)ccc1C(F)(F)F [Compound I-64, 4-(3-fluoro-5-(3-(hydroxymethyl)-1,2,4-oxadiazol-5-yl)pyridin-2-yl)-N-(3-methyl-4-(trifluoromethyl)phenyl)-5,6-dihydropyridine-1(2H)-carboxamide] | –

Continued, molecule first:

Row | Compound | Body temperature increase (ΔTb) [2] | further results
6 | O=C(Nc1ccc(C(F)(F)F)c(Cl)c1)N1CC=C(c2ncc(-c3nnc([C@H](O)CO)o3)cc2Cl)CC1 [Compound I-20, (R) —N-(3-chloro-4-(trifluoromethyl)phenyl)-4-(3-chloro-5-(5-(1,2-dihydroxyethyl)-1,3,4-oxadiazol-2-yl)pyridin-2-yl)-5,6-dihydropyridine-1(2H)-carboxamide] | less than 0.3 °C | IC50 (Human TRPV1 [1]): 147 nM
7 | O=C(Nc1ccc(C(F)(F)F)cn1)N1CC=C(c2ncc(-c3noc(CO)n3)cc2Cl)CC1 [Compound I-26, 4-(3-chloro-5-(5-(hydroxymethyl)-1,2,4-oxadiazol-3-yl)pyridin-2-yl)-N-(5-(trifluoromethyl)pyridin-2-yl)-5,6-dihydropyridine-1(2H)-carboxamide] | less than 0.3 °C | –
8 | O=C(Nc1ccc(C(F)(F)F)c(Cl)c1)N1CC=C(c2ncc(-c3ocnc3CO)cc2Cl)CC1 [Compound I-28, N-(3-chloro-4-(trifluoromethyl)phenyl)-4-(3-chloro-5-(4-(hydroxymethyl)oxazol-5-yl)pyridin-2-yl)-5,6-dihydropyridine-1(2H)-carboxamide] | less than 0.3 °C | –
9 | O=C(Nc1ccc(C(F)(F)F)c(Cl)c1)N1CC=C(c2ncc(-c3cc(CO)on3)cc2Cl)CC1 [Compound I-29, N-(3-chloro-4-(trifluoromethyl)phenyl)-4-(3-chloro-5-(5-(hydroxymethyl)isoxazol-3-yl)pyridin-2-yl)-5,6-dihydropyridine-1(2H)-carboxamide] | less than 0.3 °C | –
10 | O=C(Nc1ccc(C(F)(F)F)cn1)N1CC=C(c2ncc(-c3cc(CO)on3)cc2Cl)CC1 [Compound I-33, 4-(3-chloro-5-(5-(hydroxymethyl)isoxazol-3-yl)pyridin-2-yl)-N-(5-(trifluoromethyl)pyridin-2-yl)-5,6-dihydropyridine-1(2H)-carboxamide] | less than 0.3 °C | –
